Laboratory results as given in US10104891B2 (priority 2014, dated 2018).

Key:
Type in all cases: in vivo
Phytophthora infestans = experiment: whole plant or invertebrate; conditions: for pest or weed control at 4 µg/mL: Phytophthora infestans, in Solanum lycopersicum, 96 h, read-out: control value (Test 1); for control value (Test 1): tomato late blight, control value vs untreated section
Plasmopara viticola = experiment: Test 3: control effect against grape downy mildew; conditions: control value vs untreated section; for pest or weed control at 4 µg/mL: Plasmopara viticola, 120 h
Outline: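 Leaf lesion area, scored 5 days after inoculation and compared with untreated plants, gives the control value. Inoculation used P. viticola zoospores (1.0×10^4 units/ml) with a 16 hr moist incubation at 22° C. It followed by one day a spray of 4 ppm compound (wettable powder in Tween20) onto Neomuscat seedlings.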

[1] = system: Pseudoperonospora cubensis; experiment: Test 2: control effect against cucumber downy mildew; conditions: control value vs untreated section; for pest or weed control at 4 µg/mL: Pseudoperonospora cubensis, 120 h
Outline: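 Protective test: zoospores (1.0×10^4 units/ml) misted one day after applying a 4 ppm suspension (wettable powder diluted in 1/5000 Tween20) to 2-leaf cucumber, Sagami hanjiro. After 16 hr at 22° C humid incubation, leaf lesion area read at day 5, expressed as control value versus untreated leaves.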

Compound	pest or weed control at 4 µg/mL (Phytophthora infestans) [%]	pest or weed control at 4 µg/mL (Plasmopara viticola) [%]	pest or weed control at 4 µg/mL [1] [%]	control value (Test 1) (Phytophthora infestans)	control value (Test 3) (Plasmopara viticola)	control value (Test 2) [1]
CS(=O)(=O)Oc1ccc(Br)c2c1COC(c1csc(C3CCN(C(=O)Cn4nc(C(F)(F)F)cc4C(F)(F)F)CC3)n1)OC2 (stereo not drawn) [Compound 1-123, 4-[4-(6-bromo-9-methylsulfonyloxy-1,5-dihydro-3H-2,4-benzodioxepin-3-yl)-2-thiazolyl]-1-[2-[3,5-bis(trifluoromethyl)-1H-pyrazole-1-yl]acetyl]piperidine]	100	100	100			
CS(=O)(=O)Oc1ccc([N+](=O)[O-])c2c1COC(c1csc(C3CCN(C(=O)Cn4nc(C(F)F)cc4C(F)F)CC3)n1)OC2 (stereo not drawn) [Compound 1-124]				100	100	100
CS(=O)(=O)Oc1ccc(Br)c2c1COC(c1csc(C3CCN(C(=O)Cn4nc(C(F)F)cc4C(F)F)CC3)n1)OC2 (stereo not drawn) [Compound 1-125]				100	100	100
O=C(Cn1nc(C(F)F)cc1C(F)F)N1CCC(c2nc(C3OCc4cccc([N+](=O)[O-])c4CO3)cs2)CC1 (stereo not drawn) [Compound 1-126]				100	100	100
Cc1cc(C(F)(F)F)nn1CC(=O)N1CCN(c2nc(C3OCc4cccc(OS(C)(=O)=O)c4CO3)cs2)CC1 (stereo not drawn) [Compound 1-127]				100	100	100
CS(=O)(=O)Oc1ccc([N+](=O)[O-])c2c1COC(c1csc(C3CCN(C(=O)Cn4nc(C(F)(F)F)cc4C(F)(F)F)CC3)n1)OC2 (stereo not drawn) [Compound 1-128]				100	100	100
CS(=O)(=O)Oc1ccc(I)c2c1COC(c1csc(C3CCN(C(=O)Cn4nc(C(F)(F)F)cc4C(F)(F)F)CC3)n1)OC2 (stereo not drawn) [Compound 1-129, 4-[4-(6-iodo-9-methylsulfonyloxy-1,5-dihydro-3H-2,4-benzodioxepin-3-yl)-2-thiazolyl]-1-[2-[3,5-bis(trifluoromethyl)-1H-pyrazole-1-yl]acetyl]piperidine]	100	100	100			
CS(=O)(=O)Oc1ccc(I)c2c1COC(c1csc(C3CCN(C(=O)Cn4nc(C(F)F)cc4C(F)F)CC3)n1)OC2 (stereo not drawn) [Compound 1-130]				100	100	100
CS(=O)(=O)Oc1c(F)ccc2c1COC(c1csc(C3CCN(C(=O)Cn4nc(C(F)(F)F)cc4C(F)(F)F)CC3)n1)OC2 (stereo not drawn) [Compound 1-131, 4-[4-(7-fluoro-6-methylsulfonyloxy-1,5-dihydro-3H-2,4-benzodioxepin-3-yl)-2-thiazolyl]-1-[2-[3,5-bis(trifluoromethyl)-1H-pyrazole-1-yl]acetyl]piperidine]	100	100	100			
CS(=O)(=O)Oc1c(F)ccc2c1COC(c1csc(C3CCN(C(=O)Cn4nc(C(F)F)cc4C(F)F)CC3)n1)OC2 (stereo not drawn) [Compound 1-132, 4-[4-(7-fluoro-6-methylsulfonyloxy-1,5-dihydro-3H-2,4-benzodioxepin-3-yl)-2-thiazolyl]-1-[2-[3,5-bis(difluoromethyl)-1H-pyrazole-1-yl]acetyl]piperidine]	100	100	100			
COc1ccc(C)c2c1COC(c1csc(C3CCN(C(=O)Cn4nc(C(F)(F)F)cc4C(F)(F)F)CC3)n1)OC2 (stereo not drawn) [Compound 1-134]				100	100	100
COc1cccc2c1COC(c1csc(C3CCN(C(=O)Cn4nc(C(F)(F)F)cc4C)CC3)n1)OC2 (stereo not drawn) [Compound 1-135]				100	100	100
O=C(Cn1nc(C(F)F)cc1C(F)F)N1CCC(c2nc(C3OCc4cccc(OC(F)F)c4CO3)cs2)CC1 (stereo not drawn) [Compound 1-136]				100	100	100
O=C(Cn1nc(C(F)(F)F)cc1C(F)(F)F)N1CCC(c2nc(C3OCc4cccc(OC(F)F)c4CO3)cs2)CC1 (stereo not drawn) [Compound 1-137]				100	100	100
CS(=O)(=O)Oc1ccc2c(c1)COC(c1csc(C3CCN(C(=O)Cn4nc(C(F)F)cc4C(F)F)CC3)n1)OC2 (stereo not drawn) [Compound 1-138]				100	100	100
CS(=O)(=O)Oc1ccc2c(c1)COC(c1csc(C3CCN(C(=O)Cn4nc(C(F)(F)F)cc4C(F)(F)F)CC3)n1)OC2 (stereo not drawn) [Compound 1-139]				100	100	100
COc1cccc2c1COC(c1csc(C3CCN(C(=O)Cn4nc(C(F)F)cc4C(F)F)CC3)n1)OC2 (stereo not drawn) [Compound 1-141]				100	100	100
COc1ccc(F)c2c1COC(c1csc(C3CCN(C(=O)Cn4nc(C(F)(F)F)cc4C(F)(F)F)CC3)n1)OC2 (stereo not drawn) [Compound 1-142]				100	100	100
Cc1cc(C(F)(F)F)nn1CC(=O)N1CCC(c2nc(C3OCc4c(OC(F)F)ccc(OS(C)(=O)=O)c4CO3)cs2)CC1 (stereo not drawn) [Compound 1-143]				100	100	100
O=C(Cn1nc(C(F)F)cc1C(F)F)N1CCC(c2nc(C3OCc4cccc(C=NO)c4CO3)cs2)CC1 (stereo not drawn) [Compound 1-145]				100	100	100
CS(=O)(=O)Oc1ccc(OS(C)(=O)=O)c2c1COC(c1csc(C3CCN(C(=O)Cn4nc(C(F)F)cc4C(F)F)CC3)n1)OC2 [Compound 1-146]				100	100	100
CS(=O)(=O)Oc1ccc(OS(C)(=O)=O)c2c1COC(c1csc(C3CCN(C(=O)Cn4nc(C(F)(F)F)cc4C(F)(F)F)CC3)n1)OC2 [Compound 1-147, 4-[4-[6,9-bis(methylsulfonyloxy)-1,5-dihydro-3H-2,4-benzodioxepin-3-yl]-2-thiazolyl]-1-[2-[3,5-bis(trifluoromethyl)-1H-pyrazole-1-yl]acetyl]piperidine]	90	70	90			
N#Cc1cccc2c1COC(c1csc(C3CCN(C(=O)Cn4nc(C(F)F)cc4C(F)F)CC3)n1)OC2 (stereo not drawn) [Compound 1-148]				100	100	100
O=C(Cn1nc(C(F)(F)F)cc1C(F)(F)F)N1CCC(c2nc(C3OCc4cccc(C=NO)c4CO3)cs2)CC1 (stereo not drawn) [Compound 1-149]				100	100	100
N#Cc1cccc2c1COC(c1csc(C3CCN(C(=O)Cn4nc(C(F)(F)F)cc4C(F)(F)F)CC3)n1)OC2 (stereo not drawn) [Compound 1-150]				100	100	100
CS(=O)(=O)Oc1cccc2c1COC(c1csc(N3CCN(C(=O)Cn4nc(C(F)F)cc4C(F)F)CC3)n1)OC2 (stereo not drawn) [Compound 1-151]				100	100	100
Cc1cc(C(F)(F)F)nn1C(C)C(=O)N1CCC(c2nc(C3OCc4cccc(OS(C)(=O)=O)c4CO3)cs2)CC1 (stereo not drawn) [Compound 1-152]				100	100	100
Cc1cc(C(F)F)nn1CC(=O)N1CCC(c2nc(C3OCc4c(F)ccc(OS(C)(=O)=O)c4CO3)cs2)CC1 (stereo not drawn) [Compound 1-153]				100	100	100
Cc1cc(C(F)(F)F)nn1CC(=O)N1CCC(c2nc(C3(C)OCc4c(F)ccc(OS(C)(=O)=O)c4CO3)cs2)CC1 (stereo not drawn) [Compound 1-154]				90	100	100
Cc1cc(C(F)(F)F)nn1C(F)(F)C(=O)N1CCC(c2nc(C3OCc4c(F)ccc(OS(C)(=O)=O)c4CO3)cs2)CC1 (stereo not drawn) [Compound 1-155]				100	100	100
